One data set has as its target T1, ITCH (Homo sapiens, UniProt Q96J02).
T1 construct: purchased Boston Biochem one of K-102, K-260, K-200B, K-220, K-240, K-270
In words: In vitro ubiquitination assay, ITCH. The class given is biochemical. As to conditions: HECT E3 ligase. Here is the method:
For analysis of clAP1, MDM2, TRIM63, RNF4, ITCH and E6AP mediated poly-ubiquitination, the respective ubiquitin ligase kit from Boston Biochem (K-102, K-260, K-200B, K-220, K-240 and K-270) was used. Here, reaction buffer, E1, E2 and E3 enzyme (and p53 substrate in case of MDM2) were mixed and pre-incubated with compound or DMSO for 5 minutes at room temperature before adding Mg^2+-ATP and mono-ubiquitin for reaction start. Ubiquitination was visualized by Western Blot analyses.

The next data set has as its target T2, TRAF6-UBC13 interaction (Homo sapiens, UniProt Q9Y4K3).
T2 construct: RING-Zincfinger1 (RZ1) domain (residues 50-159) of TRAF6 wildtype; made in house; host or cells: E. coli BL21 codon plus RIPL
T2 sequence (Q9Y4K3 50-159): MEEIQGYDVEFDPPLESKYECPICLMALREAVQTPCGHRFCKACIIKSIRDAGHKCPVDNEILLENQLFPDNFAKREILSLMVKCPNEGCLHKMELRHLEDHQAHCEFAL
As to the kind of experiment: ALPHAScreen TRAF6WTStrepII-Ubc13FH interaction assay. The class given is binding. The conditions noted are these: inhibition of TRAF6-UBC13 interaction. The source says:
In order to identify small molecules that specifically target the RZ1 domain of TRAF6 and thereby prevent its binding to Ubc13, the ALPHAScreen technology (PerkinElmer) was chosen to detect TRAF6WTStrepII-Ubc13FH interaction in High-Throughput-Screenings as well as Structure Activity Relationship (SAR) analysis.
For performance of an automated ALPHAScreen assay, all following components were pre-diluted in ALPHAScreen buffer (1×PBS, 0.5% BSA, 0.01% Tween-20). First, the TRAF6 protein (end concentration 100 nM, 30 μL volume) was added to 384-well-opti-plates involving the MultiFlo dispensing system (BioTek) followed by transfer of the compounds via the Sciclone G3 transfer station (PerkinElmer). After addition of Ubc13FH (end concentration 75 nM, 10 μL volume) with the MultiFlo system and incubation for one hour at room temperature, both beads (Strep-Tactin Alpha Donor beads and Nickel-Chelate acceptor beads; end concentrations 4 μg each, 10 μL volume each) were mixed and added using the MultiFlo system in subdued light. Read-out of the plates occurred after another hour of incubation at room temperature. Statistical parameters including the coefficient of variation, Z′ factor and signal window were calculated to determine the quality of the HTS campaign. To evaluate the efficacy of the compounds, ALPHAScreen units of compound-treated samples were referred to DMSO control treated samples. Thereby, the TRAF6D57K mutant served as the control for minimum signal and was included on every plate of the screening. Compounds that inhibited TRAF6WTStrepII-Ubc13FH by more than 25% were considered as actives. After elimination of ALPHAScreen frequent hitter compounds and His-tag frequent hitters (Schorpp, K., I. Rothenaigner, E. Salmina, et al., Identification of Small-Molecule Frequent Hitters from AlphaScreen High-Throughput Screens. J Biomol Screen, 2014. 19(5): p. 715-26), 178 compounds were defined as primary hits and were subsequently tested in five-point serial dilution assays (2.5-40 μM) in TRAF6WTStrepII-Ubc13FH ALPHAScreen experiments. Only compounds with dose-dependent effects on TRAF6WTStrepII-Ubc13FH (n=27) were taken for further research. For analog testing, all compounds were analyzed in ten-point titration (0.2-100 μM) in TRAF6WTStrepII-Ubc13FH ALPHAScreen experiments. In parallel, the compounds were tested in the ALPHAScreen TruHits Kit (PerkinElmer) to rule out unspecific interference with the ALPHAScreen technology.

Another data set concerns CYP450. As to the kind of experiment: CYP450 inhibition. The class given is in vitro ADME. Here is the method: All ADME (plasma stability, plasma protein binding, microsomal stability, Log D, Caco-2 assay, CYP450 inhibition and hERG predictor assay) as well as pharmacokinetic studies (Tmax, Cmax, AUC0-240 min, Mean Residence Time, Elimination half life, Elimination rate constant, Volume of Distribution and Clearance) of C25-140 (compound 3) were conducted by Bienta Enamine Biology Services of Bienta/Enamine Ltd.

In data set [1] the test system is Diet-Induced-Obesity (DIO) mice. As to the kind of experiment: Diet-Induced-Obesity (DIO) mouse study. As to conditions: 7.4 mg/kg IP once daily. The class given is in vivo. The protocol:
For MEF cells, 1.2×10^5 cells per sample were seeded, treated with compound for 6 hours and stimulated with either IL-1β or TNFα for 60 minutes. Jurkat T-cells and primary mouse CD4^+ T-cells were seeded at 2×10^5 cells per sample, also treated with compound for 6 hours and stimulated with PMA/lonomycin for 3 hours. RNA was isolated according to the manufacturer's protocol of the Qiagen RNeasy Kit (MEF cells) or the STRATEC INVITRAP® SPIN UNIVERSAL RNA MINI KIT (Jurkat T-cells). The isolation of mRNA from […] white adipose tissue from DIO mice was performed using TRIzol® Reagent according to manufacturer's instruction. To clear the isolated RNA from genomic DNA, samples (up to 5 μg RNA) were treated with RQ1 RNase-Free DNaseI (Promega) as described in the technical manual. For the reverse transcription of RNA into cDNA, the DNaseI digested RNA samples were processed using the SuperScript III First Strand cDNA Synthesis System (Invitrogen/ThermoFisher Scientific) following the manufacturer's protocol. Thereby, random hexamers provided with the kit were used for reverse transcription. cDNA samples were stored at −20° C. For quantification of cDNA in the samples, the LightCylcer480 (Roche) and the KAPA SYBR FAST qPCR Kit were used. For relative quantification, the ΔΔCp method first described by Pfaffl (Pfaffl, M. W., A new mathematical model for relative quantification in real-time RT-PCR. Nucleic Acids Res, 2001. 29(9): p. e45) was applied. The following primer were used for qRT-PCR:
Mice were fed a high-fat-diet until they reached a body weight of at least 40 g and developed […]. These mice were separated in control group and a group for C25-140 (compound 3) injection. Mice were treated every day with 14 μmol/kg (=7.4 mg/kg) C25-140 intraperitoneally for a period of 20 days. Thereby, C25-140 was dissolved in 2.9% DMSO, 1.5% Tween-80 and 1×PBS. Every day before injection, the body weight and food intake were measured. […]

This is an account of results in patent publication US11001591B2, “TRAF 6 inhibitors” (HELMHOLTZ ZENTRUM MUENCHEN—DEUTSCHES FORSCHUNGSZENTRUM FÜR …, priority 2016, dated 2021).

In general, IC50 refers to the concentration that inhibits the measured activity by half. A low value points to inhibition by little substance.

T1 sequence (Q96J02 whole entry): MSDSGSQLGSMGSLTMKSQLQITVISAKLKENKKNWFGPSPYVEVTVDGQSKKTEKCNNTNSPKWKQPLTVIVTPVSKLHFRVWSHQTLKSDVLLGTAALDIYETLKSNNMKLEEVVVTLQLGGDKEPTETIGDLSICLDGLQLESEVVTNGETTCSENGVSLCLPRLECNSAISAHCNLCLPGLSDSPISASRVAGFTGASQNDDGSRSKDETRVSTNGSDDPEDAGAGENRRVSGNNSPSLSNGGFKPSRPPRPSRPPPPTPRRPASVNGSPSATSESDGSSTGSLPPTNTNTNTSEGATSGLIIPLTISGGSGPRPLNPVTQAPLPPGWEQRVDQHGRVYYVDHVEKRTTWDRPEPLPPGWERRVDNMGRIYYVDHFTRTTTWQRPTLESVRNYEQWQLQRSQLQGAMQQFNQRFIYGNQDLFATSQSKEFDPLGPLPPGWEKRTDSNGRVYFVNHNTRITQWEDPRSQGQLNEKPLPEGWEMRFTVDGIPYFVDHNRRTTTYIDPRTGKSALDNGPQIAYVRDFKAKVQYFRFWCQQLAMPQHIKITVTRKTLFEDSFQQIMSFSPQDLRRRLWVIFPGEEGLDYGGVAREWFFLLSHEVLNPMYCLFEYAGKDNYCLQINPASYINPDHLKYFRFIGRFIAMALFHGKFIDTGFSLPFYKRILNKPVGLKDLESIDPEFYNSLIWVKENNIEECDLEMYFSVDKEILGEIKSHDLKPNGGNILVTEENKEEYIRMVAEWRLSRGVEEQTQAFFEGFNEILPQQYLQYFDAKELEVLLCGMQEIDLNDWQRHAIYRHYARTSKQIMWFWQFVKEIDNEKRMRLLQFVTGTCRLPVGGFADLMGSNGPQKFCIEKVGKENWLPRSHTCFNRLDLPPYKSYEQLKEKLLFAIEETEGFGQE

Take `Cc1nn(-c2ccc3nnc(C)n3n2)c(C)c1CCC(=O)N1CCC(Cc2ccccc2)CC1` [Compound 3, 1-(4-benzylpiperidin-1-yl)-3-(3,5-dimethyl-1-(3-methyl-[1,2,4]triazolo[4,3-b]pyridazin-6-yl)-1H-pyrazol-4-yl)propan-1-one]: at ITCH, the ITCH auto-ubiquitination entry is given as “not affected”. The IC50 against TRAF6-UBC13 interaction is no more than 3 µM. For the same molecule, the CYP450 inhibition entry in the data set with CYP450 is given as “some inhibitory potential on selected CYPs”. Further, the “body weight gain under high-fat-diet” value in data set [1] (20 days) was “hardly increased body weight”. Further, the food intake result in data set [1] (20 days, vs vehicle) is reported as “did not differ”. Also, the “IL-1β and VCAM mRNA in adipose tissue” value in data set [1] (day 20) is listed as “significantly reduced”.
